The text below walks through data of ChEMBL document CHEMBL3399972, “Structure-activity relationships of a novel pyranopyridine series of Gram-negative bacterial efflux pump inhibitors” (Bioorg Med Chem, 2015).

Data set [1] deals with Escherichia coli. In words: Inhibition of multidrug resistance efflux pump in Escherichia coli assessed as concentration required to reduce levofloxacin MIC by 4-fold by checkerboard assay.
In data set [2] the test system is Escherichia coli. In words: Inhibition of multidrug resistance efflux pump in wild-type Escherichia coli AB1157 assessed as concentration required to reduce piperacillin MIC by 4-fold by checkerboard assay.
For data set [3], the system named is HeLa. The experiment in a line: Cytotoxicity against human HeLa cells. The class given is cell-based.
The subject of data set [4] is Escherichia coli. In words: Antibacterial activity against Escherichia coli at 100 uM. The class given is functional, organism-based.

Molecules are shown by their SMILES. The source made the active and inactive calls. The rule behind the calls is not given here. Where only a bound is given, the exact number is not on record here.

The term CC50 denotes the concentration that lowers cell viability or growth by half. Low values mean harm at low concentration, high ones better tolerance by the cells.

`COCCN1CCN(c2nc(SCCc3cccc(OC)c3)c(C#N)c3c2COC(C)(C)C3)CC1`: the INH in data set [1] is 6.3 µM; in data set [2], 4.7 µM. Also, half-maximal cytotoxicity in data set [3] (CC50) was put at 46.5 µM. Also, the outcome in data set [4] was inactive.

Consider `CC(=O)Oc1cccc(CCSc2nc(N3CCOCC3)c3c(c2C#N)CC(C)(C)OC3)c1`, for which the INH in data set [1] and in data set [2] was 1.6 µM in each case. Also, the CC50 in data set [3] stood at 48.3 µM. The outcome in data set [4] was inactive.

As for `COc1cccc(CCSc2nc(N3CC(C)OC(C)C3)c3c(c2C#N)CC(C)(C)OC3)c1` (centres undefined), the INH in data set [1] worked out at 9.4 µM; in data set [2] it was 1.6 µM. Besides, the half-maximal cytotoxic concentration (CC50) in data set [3] was above 100 µM. In addition, the outcome in data set [4] was inactive.

In the case of `COCCN1CCN(c2nc(SCCc3cccnc3)c(C#N)c3c2COC(C)(C)C3)CC1`, the INH is above 100 µM in data set [1] and 25 µM in data set [2]. In addition, in data set [3], the CC50 was above 100 µM. In data set [4], the outcome was inactive.

In the case of `COc1ccccc1CCSc1nc(N2CCOCC2)c2c(c1C#N)CC(C)(C)OC2`, the INH in data set [1] and in data set [2] was 3.1 µM in each case. The compound also came in with a CC50 in data set [3] above 100 µM. The result in data set [4] was inactive.

With `CC1(C)Cc2c(C#N)c(SCCc3cccnc3)nc(N3CCOCC3)c2CO1`, the results for the INH in data set [1] and in data set [2] were 25 µM and 3.1 µM, respectively. Moreover, the cytotoxic concentration (CC50) in data set [3] was above 100 µM. Moreover, in data set [4], the outcome was inactive.

Regarding `CC1(C)Cc2c(C#N)c(SCCc3cccc(-c4nnn[nH]4)c3)nc(N3CCOCC3)c2CO1`, the results for the INH in data set [1] and in data set [2] were above 100 µM and 12.5 µM, respectively. In data set [3], this compound yielded a CC50 of 20.7 µM. Besides, in data set [4], the result was inactive.

With `CC1(C)Cc2c(C#N)c(SCCc3ccccc3)nc(N3CCSCC3)c2CO1`, the INH is above 100 µM in data set [1] and 1.6 µM in data set [2]. The same compound registered a CC50 in data set [3] above 100 µM. For the same compound, in data set [4], the result was inactive.

Turning to `CC1(C)Cc2c(c(N3CCOCC3)nc(SCCc3ccccc3)c2C(N)=O)CO1`, the INH in data set [1] and in data set [2] was above 100 µM each time. The outcome in data set [4] was inactive.

Consider `CC1(C)Cc2c(C#N)c(SCCc3cccc(Cl)c3)nc(N3CCOCC3)c2CO1`, for which the INH in data set [1] and in data set [2] was 3.1 µM in each case. In data set [3], this compound showed a 50% cytotoxic concentration (CC50) above 100 µM. Further, the outcome in data set [4] was inactive.

For the compound `CC1(C)Cc2c(C#N)c(SCCc3ccccn3)nc(N3CCOCC3)c2CO1`, the results for the INH in data set [1] and in data set [2] were 50 µM and 25 µM, respectively. The compound also came in with a CC50 in data set [3] of 78.1 µM. In addition, the result in data set [4] was inactive.

Consider `CC1(C)Cc2c(C#N)c(SCCC#N)nc(N3CCOCC3)c2CO1`, for which the INH in data set [1] and in data set [2] was above 100 µM in each case. The CC50 in data set [3] is above 100 µM. Besides, the result in data set [4] was inactive.

As for `CC1CN(c2nc(SCCc3ccc(NC(=O)C(C)(C)C)cc3)c(C#N)c3c2COC(C)(C)C3)CC(C)O1` (centres undefined), the INH in data set [1] and in data set [2] was above 100 µM in each case. This compound displayed a CC50 in data set [3] above 100 µM. Besides, the outcome in data set [4] was inactive.

`CN1CCCN(c2nc(SCCc3ccccc3)c(C#N)c3c2COC(C)(C)C3)CC1`: the INH turned out to be 12.5 µM in data set [1] and 25 µM in data set [2]. For the same compound, half-maximal cytotoxicity in data set [3] (CC50) was put at 16.4 µM. For the same compound, the result in data set [4] was inactive.

`COCCN1CCN(c2nc(SCCc3cccc(F)c3)c(C#N)c3c2COC(C)(C)C3)CC1`: the INH in data set [1] is above 100 µM; in data set [2] it was 6.3 µM. In data set [3], half-maximal cytotoxicity (CC50) was put at 37.9 µM. For the same compound, in data set [4], the outcome was inactive.

In the case of `CC1(C)Cc2c(C#N)c(SCCc3cccc(F)c3)nc(N3CCOCC3)c2CO1`, the INH is above 100 µM in data set [1] and 4.7 µM in data set [2]. Moreover, the CC50 in data set [3] was above 100 µM. Moreover, the outcome in data set [4] was inactive.

As to `CC1(C)Cc2c(C#N)c(SCC(=O)c3ccccc3)nc(N3CCOCC3)c2CO1`, the INH in data set [1] and in data set [2] was above 100 µM each time. In addition, in data set [4], the outcome was inactive.

Turning to `CC1(C)Cc2c(C#N)c(SCCc3c[nH]c4ccccc34)nc(N3CCOCC3)c2CO1`, the values for the INH in data set [1] and in data set [2] were 12.5 µM and 2.4 µM, respectively. This compound displayed a CC50 in data set [3] of 44.8 µM. The result in data set [4] was inactive.

Turning to `CN1CCN(c2nc(SCCc3ccccc3)c(C#N)c3c2COC(C)(C)C3)CC1`, the INH in data set [1] and in data set [2] was 6.3 µM each time. The CC50 in data set [3] was 14.4 µM. In data set [4], the result was inactive.

On to `COCCN1CCN(c2nc(SCCc3ccncc3)c(C#N)c3c2COC(C)(C)C3)CC1`, for which the figures for the INH in data set [1] and in data set [2] were 6.3 µM and 50 µM, respectively. The compound also showed a CC50 in data set [3] of 95.9 µM. Moreover, the outcome in data set [4] was inactive.

As to `CC1(C)Cc2c(C#N)c(S(=O)(=O)CCc3ccccc3)nc(N3CCOCC3)c2CO1`, the INH in data set [1] and in data set [2] was above 100 µM each time. The result in data set [4] was inactive.

As to `CC1(C)Cc2c(C#N)c(SCC(O)c3ccccc3)nc(N3CCOCC3)c2CO1` (centres undefined), the INH in data set [1] and in data set [2] was above 100 µM throughout. The result in data set [4] was inactive.

For the compound `CC1(C)Cc2c(C#N)c(SCCc3ccc(F)cc3)nc(N3CCOCC3)c2CO1`, the results for the INH in data set [1] and in data set [2] were 6.3 µM and 3.1 µM, respectively. This compound also displayed a CC50 in data set [3] of 59 µM. In data set [4], the outcome was inactive.

Regarding `N#Cc1c(SCCc2ccccc2)nc(N2CCOCC2)c2c1CCOC2`, the INH in data set [1] and in data set [2] was above 100 µM in each case. Moreover, in data set [4], the result was inactive.

Consider `N#Cc1c(SCCc2ccccn2)nc(N2CCOCC2)c2c1CCOC2`, for which the INH in data set [1] and in data set [2] was above 100 µM throughout. Also, the outcome in data set [4] was inactive.

For the compound `CC1(C)Cc2c(C#N)c(SCCc3ccccc3)nc(N3CCCOCC3)c2CO1`, the INH in data set [1] was above 100 µM; in data set [2], 1.6 µM. In data set [3], this compound came in with a CC50 above 100 µM. Further, the outcome in data set [4] was inactive.

Turning to `CC1(C)Cc2c(C#N)c(SCCc3ccccc3)nc(N3CCCC3)c2CO1`, the INH in data set [1] and in data set [2] was above 100 µM in each case. Further, half-maximal cytotoxicity in data set [3] (CC50) was put at 20.2 µM. Besides, the result in data set [4] was inactive.

Regarding `CC1(C)Cc2c(C#N)c(SCCc3coc4ccccc34)nc(N3CCOCC3)c2CO1`, the figures for the INH in data set [1] and in data set [2] were above 100 µM and 6.3 µM, respectively. Besides, the cytotoxic concentration (CC50) in data set [3] was above 100 µM. Further, the result in data set [4] was inactive.

For `CCN(CC)c1nc(SCCc2ccccc2)c(C#N)c2c1COC(C)(C)C2`, the results for the INH in data set [1] and in data set [2] were above 100 µM and 6.3 µM, respectively. The same compound came in with a 50% cytotoxic concentration (CC50) in data set [3] of 38.2 µM. For the same compound, the outcome in data set [4] was inactive.

Take `CC1(C)Cc2c(c(N3CCOCC3)nc(SCCc3ccccc3)c2C(=N)NO)CO1`: the INH in data set [1] and in data set [2] was above 100 µM each time. For the same compound, the outcome in data set [4] was inactive.

On to `CC1(C)Cc2c(C#N)c(SCCc3ccccc3)nc(N3CCCNCC3)c2CO1`, for which the INH in data set [1] and in data set [2] was 12.5 µM throughout. Moreover, it took 20.3 µM to reach half-maximal cytotoxicity in data set [3] (CC50). In addition, in data set [4], the outcome was inactive.

As to `COCCN1CCN(c2nc(SCCc3cccc(Br)c3)c(C#N)c3c2COC(C)(C)C3)CC1`, the INH is 12.5 µM in data set [1] and 2.8 µM in data set [2]. The same compound came in with a CC50 in data set [3] of 75.1 µM. Further, in data set [4], the result was inactive.

Regarding `COc1ccc(CCSc2nc(N3CCOCC3)c3c(c2C#N)CC(C)(C)OC3)cc1`, the INH was determined as 6.3 µM in data set [1] and 3.1 µM in data set [2]. The same compound registered a half-maximal cytotoxic concentration (CC50) in data set [3] above 100 µM. Moreover, the outcome in data set [4] was inactive.

On to `COCCN1CCN(c2nc(SCCOc3ccccc3)c(C#N)c3c2COC(C)(C)C3)CC1`, for which the INH in data set [1] was above 100 µM; in data set [2] it was 12.5 µM. In addition, in data set [3], the 50% cytotoxic concentration (CC50) worked out at 33.9 µM. In addition, in data set [4], the outcome was inactive.

On to `CC1(C)Cc2c(C#N)c(SCCc3ccccc3F)nc(N3CCOCC3)c2CO1`, for which, in data set [1], the INH was above 100 µM. In addition, the half-maximal cytotoxic concentration (CC50) in data set [3] is above 100 µM. For the same compound, the result in data set [4] was inactive.

In the case of `CN(C)c1nc(SCCc2ccccc2)c(C#N)c2c1COC(C)(C)C2`, the INH in data set [1] is above 100 µM; in data set [2], 9.4 µM. Moreover, in data set [3], the cytotoxic concentration (CC50) was determined as 57.4 µM. The result in data set [4] was inactive.

As to `CC1CN(c2nc(SCCc3ccc(NS(C)(=O)=O)cc3)c(C#N)c3c2COC(C)(C)C3)CC(C)O1` (centres undefined), the INH in data set [1] and in data set [2] was 6.3 µM each time. In data set [3], this compound had a CC50 of 67 µM. The result in data set [4] was inactive.

`CC1(C)Cc2c(C#N)c(SCCCc3ccccc3)nc(N3CCOCC3)c2CO1`: the INH in data set [1] and in data set [2] was above 100 µM each time. Also, the result in data set [4] was inactive.

As to `COCCN1CCN(c2nc(SCCc3ccccc3F)c(C#N)c3c2COC(C)(C)C3)CC1`, the INH in data set [1] came to 12.5 µM; in data set [2], 9.4 µM. Besides, the CC50 in data set [3] turned out to be 30.6 µM. In addition, in data set [4], the outcome was inactive.

Turning to `CC1(C)Cc2c(C#N)c(SCCc3ccc(S(=O)(=O)O)cc3)nc(N3CCOCC3)c2CO1`, the INH in data set [1] and in data set [2] was above 100 µM throughout. Besides, in data set [3], the midpoint of cytotoxicity, the CC50, lay at 17.2 µM. For the same compound, the outcome in data set [4] was inactive.

As to `CC1(C)Cc2c(C#N)c([S+]([O-])CCc3ccccc3)nc(N3CCOCC3)c2CO1` (centres undefined), the INH in data set [1] and in data set [2] was above 100 µM each time. Further, in data set [4], the outcome was inactive.

With `CC1(C)Cc2c(C#N)c(SCCc3nnn[nH]3)nc(N3CCOCC3)c2CO1`, the INH in data set [1] and in data set [2] was above 100 µM throughout. In data set [3], this compound showed a CC50 of 30.2 µM. The result in data set [4] was inactive.

With `CC1(C)Cc2c(C#N)c(SCCc3cccc(C#N)c3)nc(N3CCOCC3)c2CO1`, the INH in data set [1] is 12.5 µM; in data set [2] it was 3.9 µM. The same compound gave a CC50 in data set [3] above 100 µM. The result in data set [4] was inactive.

The compound `CC1CN(c2nc(SCCc3ccccc3)c(C#N)c3c2COC(C)(C)C3)CC(C)O1` (centres undefined) gave a CC50 in data set [3] above 100 µM. In addition, in data set [4], the outcome was inactive.
